Key:
[1] = target: T1, human NPY Y1 receptor subtype (Homo sapiens, UniProt P25929); assay: NPY Y1 receptor binding, [125I]PYY on SK-N-MC cells; settings: test compounds at 5 µM final concentration, [125I]PYY about 50 pM, read-out: IC50 (µM) NPY receptor indicated hY1
T1 construct: host or cells: SK-N-MC cells
T1 sequence (P25929 1-384): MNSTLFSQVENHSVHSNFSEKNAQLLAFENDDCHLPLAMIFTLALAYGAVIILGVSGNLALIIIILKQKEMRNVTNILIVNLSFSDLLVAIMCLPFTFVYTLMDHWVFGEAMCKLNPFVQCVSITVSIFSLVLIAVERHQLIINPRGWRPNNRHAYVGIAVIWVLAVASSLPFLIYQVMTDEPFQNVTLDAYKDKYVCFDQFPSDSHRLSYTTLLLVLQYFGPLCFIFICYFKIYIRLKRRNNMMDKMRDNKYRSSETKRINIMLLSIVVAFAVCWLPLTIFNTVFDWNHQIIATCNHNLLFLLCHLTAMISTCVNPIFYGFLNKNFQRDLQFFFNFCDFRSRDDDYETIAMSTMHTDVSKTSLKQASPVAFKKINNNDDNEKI
Description: For instance, test compounds antagonistic to human NPY Y1 receptor subtype can be identified by a modified method of Gordon et al., J. Neurochem. 55:506-513,(1990), wherein SK-N-MC cells (ATCC, Rockville, ND) are plated in 24-well plates. Once confluent, the cells are rinsed with Dulbecco's phosphate buffered saline (DPBS). Cells are then preincubated in binding buffer containing serum-free DMEM, 25 mM HEPES (pH 7.3), 0.5% bovine serum albumin (BSA), 0.1% bacitracin and 0.1mM phenylmethylsulfonyl fluoride for 30 minutes at room temperature. Test compounds at a final concentration of 5 µM, and [^125I] PYY (about 50 pM:NEN-DuPont) are added to the wells, and the cells are incubated for an additional 3 hours at room temperature, followed by rinsing with ice-cold DPBS. Nonspecific binding is defined with 1 µM NPY. After lysing the cells with 1% Triton X-100, the amount of radioactivity in the lysates is quantitated with a gamma counter.

human Y4/PP1 = human Y4/PP1 (Homo sapiens, UniProt P50391); assay: NPY Y4/PP1 receptor membrane binding, [125I] human PP; settings: membrane protein; 50 pM [125I] human PP; test compounds at 5 µM final concentration; read-out: IC50 (µM) NPY receptor indicated hY4/pp1
Chain of human Y4/PP1 (P50391 whole entry): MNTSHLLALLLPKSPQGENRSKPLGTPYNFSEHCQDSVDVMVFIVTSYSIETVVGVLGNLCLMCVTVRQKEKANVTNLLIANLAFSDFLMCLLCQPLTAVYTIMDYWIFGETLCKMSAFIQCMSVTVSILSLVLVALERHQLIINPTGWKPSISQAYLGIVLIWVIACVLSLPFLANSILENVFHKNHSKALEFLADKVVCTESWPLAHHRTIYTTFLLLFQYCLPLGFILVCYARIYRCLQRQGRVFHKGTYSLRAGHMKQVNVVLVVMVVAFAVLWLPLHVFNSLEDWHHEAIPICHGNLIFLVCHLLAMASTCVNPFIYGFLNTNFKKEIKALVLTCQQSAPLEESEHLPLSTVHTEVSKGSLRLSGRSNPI
Description: (§1) Assays to determine binding affinity for human NPY Y2 and Y4/PP1 receptor subtypes are performed on GF/C Millipore 96-well plates pretreated with 0.02% polyethylenimine. The binding buffer for rat NPY Y2 receptor subtype binding is Krebs-Ringer bicarbonate (pH 7.4) containing 0.01% BSA and 0.005% bacitracin. Samples consist of membrane protein, 25 pM [^125I]PYY and test compounds at 5 µM final concentration. Nonspecific binding is defined by 1 µM NPY. The binding buffer for human Y4/PP1 binding consists of 137 mM NaCl, 5.4 mM KCl, 0.44 mM KH2PO4, 1.26 mM CaCl2, 0.81 mM MgSO4, 20 mM HEPES, 1 mM dithiothreitol, 0.1% bacitracin, 100 mg/l streptomycin sulfate, 1 mg/l aprotinin, 10 mg/ml soybean trypsin inhibitor and 0.3% BSA, pH 7.4. Samples consist of membrane protein, 50 pM human [^125I] human PP (hPP:NEN DuPont, Boston MA) and test compounds diluted to a final concentration of 5 µM. One µM hPP is used to define nonspecific binding. After a 2 hour incubation at room temperature with constant mixing, the samples are aspirated on a vacuum manifold, and rinsed with ice-cold binding buffer. The amount of radioactivity in each well is quantitated with either gamma counting or liquid scintillation.

[2] = target: T2, human NPY Y5 receptor subtype (Homo sapiens, UniProt Q15761); assay: NPY Y5 receptor membrane binding, [125I]PYY (human); settings: membrane protein; 75-100 pM [125I]PYY; 50% inhibition of specific binding; read-out: IC50 (µM) NPY receptor indicated hY5
T2 sequence (Q15761 1-445): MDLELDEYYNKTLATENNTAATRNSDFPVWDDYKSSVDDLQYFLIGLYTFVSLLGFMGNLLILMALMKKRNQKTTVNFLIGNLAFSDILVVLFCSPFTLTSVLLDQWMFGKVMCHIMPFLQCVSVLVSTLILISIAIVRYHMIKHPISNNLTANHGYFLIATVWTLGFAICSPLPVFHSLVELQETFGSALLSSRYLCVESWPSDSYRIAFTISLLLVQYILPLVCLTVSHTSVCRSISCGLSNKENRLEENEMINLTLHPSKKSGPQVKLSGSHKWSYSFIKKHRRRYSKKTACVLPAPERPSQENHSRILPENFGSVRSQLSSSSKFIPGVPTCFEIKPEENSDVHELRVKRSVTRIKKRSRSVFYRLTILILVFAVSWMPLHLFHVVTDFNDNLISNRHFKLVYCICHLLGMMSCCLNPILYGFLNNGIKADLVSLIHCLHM
Description: (§2) Assays to determine human and rat NPY Y5 receptor subtype binding affinity are performed on GF/C Millipore 96-well plates pretreated with 0.02% polyethylenimine. The binding buffer is 25 mM Tris, 120 mM NaCl, 5 mM KCl, 1.2 mM KH2PO4, 2.5 mM CaCl2, 1.2 mM MgSO4, 0.1% BSA and 0.5 mg/ml bacitracin, pH 7.4. Samples consist of membrane protein, 75-100 pM [^125I] PYY (porcine, NEN-DuPont) and test compounds diluted in binding buffer. Nonspecific binding is defined by 1 µM PYY. After a 2 hour incubation at room temperature with constant mixing, the samples are aspirated on a vacuum manifold and rinsed with ice-cold binding buffer. The amount of radioactivity in each well is quantitated with either gamma counting or liquid scintillation. IC50 values, which correspond to 50% inhibition of specific binding, are determined with non-linear regression analysis.

[3] = target: T3, rat NPY Y5 receptor subtype (Rattus norvegicus, UniProt Q63634); assay: NPY Y5 receptor membrane binding, [125I]PYY (rat); settings: for IC50: membrane protein, 75-100 pM [125I]PYY, 50% inhibition of specific binding, read-out: IC50 (µM) NPY receptor indicated rY5; for NPY receptor indicated rY5, %@1µM: printed in the rY5 IC50 column
T3 sequence (Q63634 1-445): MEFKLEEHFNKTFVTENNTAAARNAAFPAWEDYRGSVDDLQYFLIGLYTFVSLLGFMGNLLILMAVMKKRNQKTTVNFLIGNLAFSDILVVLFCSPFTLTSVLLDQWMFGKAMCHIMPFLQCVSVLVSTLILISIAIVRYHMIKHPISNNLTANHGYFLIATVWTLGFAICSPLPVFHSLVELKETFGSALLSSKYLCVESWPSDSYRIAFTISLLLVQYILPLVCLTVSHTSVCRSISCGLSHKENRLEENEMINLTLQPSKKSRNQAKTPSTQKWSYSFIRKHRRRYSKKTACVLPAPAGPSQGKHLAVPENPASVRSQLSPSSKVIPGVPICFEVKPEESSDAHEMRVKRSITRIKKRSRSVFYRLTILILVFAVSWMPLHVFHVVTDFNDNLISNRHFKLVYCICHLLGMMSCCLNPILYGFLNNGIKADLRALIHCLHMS
Description: as §2

rat NPY Y5 receptor = target: T4, rat NPY Y5 receptor (Rattus norvegicus, UniProt Q63634); assay: In vitro functional assay, forskolin-stimulated cAMP in cells stably expressing the receptor; assay type: cell-based; settings: percentage of forskolin-stimulated adenylate cyclase; 1 µM forskolin; test compound 10 µM; 80 - 120% indicates no significant agonistic effect
T4 construct: expressed in transfected cells
T4 sequence (Q63634 1-445): T3 sequence (Q63634 1-445)
Description: An in vitro functional assay to determine rat NPY Y5 receptor subtype binding affinity is performed by resuspending cells stably expressing the rat NPY Y5 receptor in serum-free DMEM containing 10 mM HEPES (pH 7.4) and 1 mM isobutylmethylxanthine (IBMX). One µM forskolin and test compounds at a final concentration of 10 µM are then added to the cells. After a 20 minute incubation of the samples at 37°C, the assay is stopped by placing the samples in boiling water for 3 minutes. The cAMP produced in each sample is quantitated with a radioimmunoassay kit (NEN DuPont). Data are expressed as a percentage of forskolin-stimulated adenylate cyclase. Data between 80 - 120% indicates no significant agonistic effect.

human NPY Y2 = target: T5, human NPY Y2 (Homo sapiens, UniProt P49146); assay: NPY Y2 receptor membrane binding, [125I]PYY; settings: membrane protein; 25 pM [125I]PYY; test compounds at 5 µM final concentration; read-out: IC50 (µM) NPY receptor indicated hY2
T5 sequence (P49146 1-381): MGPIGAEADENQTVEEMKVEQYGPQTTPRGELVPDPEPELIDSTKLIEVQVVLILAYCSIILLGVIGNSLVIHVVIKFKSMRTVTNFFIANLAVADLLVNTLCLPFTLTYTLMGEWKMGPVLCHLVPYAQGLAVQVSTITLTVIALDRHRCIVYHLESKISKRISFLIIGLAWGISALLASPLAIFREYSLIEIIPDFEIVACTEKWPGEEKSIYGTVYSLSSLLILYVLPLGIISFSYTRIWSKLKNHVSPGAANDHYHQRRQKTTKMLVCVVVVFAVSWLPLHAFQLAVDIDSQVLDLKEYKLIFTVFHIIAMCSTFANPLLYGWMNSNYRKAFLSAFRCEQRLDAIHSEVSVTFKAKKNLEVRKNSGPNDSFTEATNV
Description: as §1, with “The binding buffer for rat NPY Y2 receptor subtype binding is Krebs-Ringer bicarbonate (pH 7.4) containing 0.01% BSA and 0.005% bacitracin.” left out

SMILES	IC50 [1] [µM]	IC50 (human Y4/PP1) [µM]	IC50 [2] [µM]	IC50 (human NPY Y2) [µM]	NPY receptor indicated rY5, %@1µM [3] [%@1µM]	IC50 [3] [µM]	% forskolin at 10 µM (rat NPY Y5 receptor) [%]
Cc1ccc(S(=O)(=O)CC(C(=O)c2nc3ccccc3[nH]2)c2ccc(F)cc2)cc1 (centres unmarked) [Compound 9, 1-(1H-Benzoimidazol-2-yl)-2-(4-fluoro-phenyl)-3-(toluene-4-sulfonyl)-propan-1-one]	> 5	> 5	0.015	–	–	0.014	105
Cc1ccc(S(=O)(=O)CC(C(=O)c2nc3cc(C)ccc3[nH]2)c2ccccc2)cc1 (centres unmarked) [Compound 13, (5-Methyl-1H-benzoimidazol-2-yl)-2-phenyl-3-(toluene-4-sulfonyl)-propan-1-one]	–	> 5	0.045	> 5	–	0.036	–
Cc1ccc(S(=O)(=O)CC(C(=O)c2ccc3ccccc3n2)c2ccccc2)cc1 (centres unmarked) [Compound 1]	> 5	> 5	–	> 5	–	9.8	78
Cc1ccc(S(=O)(=O)CC(C(=O)c2ncc[nH]2)c2ccccc2)cc1 (centres unmarked) [Compound 3, (1H-Imidazol-2-yl)-2-phenyl-3-(toluene-4-sulfonyl)-propan-1-one]	–	> 5	–	> 5	30	–	–

The next lines start with results.

IC50 [1] [µM]	IC50 (human Y4/PP1) [µM]	IC50 [2] [µM]	IC50 (human NPY Y2) [µM]	NPY receptor indicated rY5, %@1µM [3] [%@1µM]	SMILES	IC50 [3] [µM]	% forskolin at 10 µM (rat NPY Y5 receptor) [%]
–	> 5	–	> 5	2	Cc1ccc(SCC(C(=O)c2nc3ccccc3[nH]2)c2ccccc2)cc1 (centres unmarked) [Compound 4, (1H-Benzoimidazol-2-yl)-2-phenyl-3-p-tolylsulfanyl-propan-1-one]	–	–
–	> 5	0.008	> 5	–	O=C(c1nc2ccccc2[nH]1)C(CS(=O)(=O)c1ccc(Br)cc1)c1ccccc1 (centres unmarked) [Compound 11, 1-(1H-Benzoimidazol-2-yl)-3-(4-bromo-benzenesulfonyl)-2-phenyl-propan-1-one]	–	–
> 5	> 5	0.005	> 5	–	Cc1ccc(S(=O)(=O)CC(C(=O)c2nc3ccccc3[nH]2)c2ccccc2)cc1 (centres unmarked) [Compound 15, 1-(1H-Benzoimidazol-2-yl)-2-phenyl-3-(toluene-4-sulfonyl)-propan-1-one]	–	–
> 5	> 5	0.011	> 5	–	O=C(c1nc2ccccc2[nH]1)C(CS(=O)(=O)c1cccc2ccccc12)c1ccccc1 (centres unmarked) [Compound 12, 1-(1H-Benzoimidazol-2-yl)-3-(naphthalene-1-sulfonyl)-2-phenyl-propan-1-one]	–	–
–	> 5	0.025	> 5	–	Cc1ccc([S+]([O-])CC(C(=O)c2nc3ccccc3[nH]2)c2ccccc2)cc1 (centres unmarked) [Compound 5, (1H-Benzoimidazol-2-yl)-2-phenyl-3-(toluene-4-sulfinyl)-propan-1-one]	0.025	–

— patent EP1007514B1, “HETEROCYCLIC KETONES AS NPY Y5 ANTAGONISTS” (BAYER CORPORATION, priority 1997, dated 1999)
